Calls of active or inactive are those of the source. How the calls were made is not given here.
System: CCRIS mutagenicity, Ames/micronucleus/aberration tests
Experiment: CCRIS mutagenicity studies
[1] = Test System: AMES SALMONELLA TYPHIMURIUM, Strain/Indicator: TA98(1,8-DNP6), Metabolic Activation: NONE, Method: STANDARD PLATE
[2] = Test System: AMES SALMONELLA TYPHIMURIUM, Strain/Indicator: TA98(NR), Metabolic Activation: NONE, Method: STANDARD PLATE
[3] = Test System: AMES SALMONELLA TYPHIMURIUM, Strain/Indicator: TA98, Metabolic Activation: NONE, Method: STANDARD PLATE
[4] = Test System: AMES SALMONELLA TYPHIMURIUM, Strain/Indicator: TA98, Metabolic Activation: RAT, LIVER, S-9, AROCLOR 1254, Method: STANDARD PLATE
[5] = Test System: AMES SALMONELLA TYPHIMURIUM, Strain/Indicator: TA100, Metabolic Activation: NONE, Method: PREINCUBATION
[6] = Test System: AMES SALMONELLA TYPHIMURIUM, Strain/Indicator: TA100, Metabolic Activation: NONE, Method: STANDARD PLATE
[7] = Test System: AMES SALMONELLA TYPHIMURIUM, Strain/Indicator: TA98, Metabolic Activation: NONE, Method: PREINCUBATION

Measured: mutagenic call

COc1ccc2c(c1OC)C(=O)O[C@@H]2[C@H]1c2c(cc3c(c2OC)OCO3)CCN1C
active: End Point: CHROMOSOMAL ABERRATIONS, Test System: HUMAN LYMPHOCYTES, Metabolic Activation: NONE, Method: FISH active; positive (ploidy changes) | End Point: In vivo micronucleus, Test System: Micronucleated, binucleated and multinucleated hepatocytes, Species: Mouse, Strain/Sex: ddY/Male, Route: Intravenous active; positive for micronucleated, binucleated and multinucleated cells when agent adm | End Point: MICRONUCLEUS, Test System: HUMAN LYMPHOCYTES, Metabolic Activation: NONE active; positive (aneuploidy and polyploidy)

O=c1oc2c([N+](=O)[O-])cccc2c2ccccc12
inactive: [2] inactive; negative
active: Test System: AMES SALMONELLA TYPHIMURIUM, Strain/Indicator: TA98(1,8-DNP6), Metabolic Activation: NONE, Method: MICROSUSPENSION active; positive | [1] active; positive | Test System: AMES SALMONELLA TYPHIMURIUM, Strain/Indicator: TA98(NR), Metabolic Activation: NONE, Method: MICROSUSPENSION active; positive | Test System: AMES SALMONELLA TYPHIMURIUM, Strain/Indicator: TA98(NR), Metabolic Activation: RAT, LIVER, S-9, AROCLOR 1254, Method: STANDARD PLATE active; positive | Test System: AMES SALMONELLA TYPHIMURIUM, Strain/Indicator: TA98, Metabolic Activation: NONE, Method: MICROSUSPENSION active; positive | [3] active; positive | Test System: AMES SALMONELLA TYPHIMURIUM, Strain/Indicator: TA98, Metabolic Activation: RAT, LIVER, S-9, AROCLOR 1254, Method: MICROSUSPENSION active; positive | [4] active; positive

O=NN(CC(=O)O)CC(=O)O
active: [5] active; positive
inactive: [3] inactive; negative | Test System: AMES SALMONELLA TYPHIMURIUM, Strain/Indicator: TA98, Metabolic Activation: RAT, LIVER, S-9, Method: STANDARD PLATE inactive; negative | [6] inactive; negative | Test System: AMES SALMONELLA TYPHIMURIUM, Strain/Indicator: TA100, Metabolic Activation: RAT, LIVER, S-9, Method: STANDARD PLATE inactive; negative | Test System: AMES SALMONELLA TYPHIMURIUM, Strain/Indicator: TA1535, Metabolic Activation: NONE, Method: STANDARD PLATE inactive; negative | Test System: AMES SALMONELLA TYPHIMURIUM, Strain/Indicator: TA1535, Metabolic Activation: RAT, LIVER, S-9, Method: STANDARD PLATE inactive; negative | Test System: AMES SALMONELLA TYPHIMURIUM, Strain/Indicator: TA1537, Metabolic Activation: NONE, Method: STANDARD PLATE inactive; negative | Test System: AMES SALMONELLA TYPHIMURIUM, Strain/Indicator: TA1537, Metabolic Activation: RAT, LIVER, S-9, Method: STANDARD PLATE inactive; negative | Test System: AMES SALMONELLA TYPHIMURIUM, Strain/Indicator: TA1538, Metabolic Activation: NONE, Method: STANDARD PLATE inactive; negative | Test System: AMES SALMONELLA TYPHIMURIUM, Strain/Indicator: TA1538, Metabolic Activation: RAT, LIVER, S-9, Method: STANDARD PLATE inactive; negative

O=C1c2ccc3ccccc3c2-c2c1ccc1ccccc21
active: [4] active; positive | Test System: AMES SALMONELLA TYPHIMURIUM, Strain/Indicator: TA100, Metabolic Activation: RAT, LIVER, S-9, AROCLOR 1254, Method: STANDARD PLATE active; positive
inactive: [3] inactive; negative | [6] inactive; negative

O=C(O)c1ccc(S(=O)(=O)N(Cl)Cl)cc1
inactive: Test System: AMES SALMONELLA TYPHIMURIUM, Strain/Indicator: TA98, Metabolic Activation: HAMSTER, LIVER, S-9, AROCLOR 1254 (10%), Method: PREINCUBATION inactive; negative | [7] inactive; negative | Test System: AMES SALMONELLA TYPHIMURIUM, Strain/Indicator: TA98, Metabolic Activation: RAT, LIVER, S-9, AROCLOR 1254 (10%), Method: PREINCUBATION inactive; negative | Test System: AMES SALMONELLA TYPHIMURIUM, Strain/Indicator: TA100, Metabolic Activation: HAMSTER, LIVER, S-9, AROCLOR 1254 (10%), Method: PREINCUBATION inactive; negative | [5] inactive; negative | Test System: AMES SALMONELLA TYPHIMURIUM, Strain/Indicator: TA100, Metabolic Activation: RAT, LIVER, S-9, AROCLOR 1254 (10%), Method: PREINCUBATION inactive; negative | Test System: AMES SALMONELLA TYPHIMURIUM, Strain/Indicator: TA1535, Metabolic Activation: HAMSTER, LIVER, S-9, AROCLOR 1254 (10%), Method: PREINCUBATION inactive; negative | Test System: AMES SALMONELLA TYPHIMURIUM, Strain/Indicator: TA1535, Metabolic Activation: NONE, Method: PREINCUBATION inactive; negative | Test System: AMES SALMONELLA TYPHIMURIUM, Strain/Indicator: TA1535, Metabolic Activation: RAT, LIVER, S-9, AROCLOR 1254 (10%), Method: PREINCUBATION inactive; negative | Test System: AMES SALMONELLA TYPHIMURIUM, Strain/Indicator: TA1537, Metabolic Activation: HAMSTER, LIVER, S-9, AROCLOR 1254 (10%), Method: PREINCUBATION inactive; negative | Test System: AMES SALMONELLA TYPHIMURIUM, Strain/Indicator: TA1537, Metabolic Activation: NONE, Method: PREINCUBATION inactive; negative | Test System: AMES SALMONELLA TYPHIMURIUM, Strain/Indicator: TA1537, Metabolic Activation: RAT, LIVER, S-9, AROCLOR 1254 (10%), Method: PREINCUBATION inactive; negative

O=C(/C=C/c1ccc([N+](=O)[O-])o1)N/N=C/c1ccc([N+](=O)[O-])o1
active: [1] active; positive | Test System: AMES SALMONELLA TYPHIMURIUM, Strain/Indicator: TA98(1,8-DNP6), Metabolic Activation: RAT, LIVER, S-9, 3-METHYLCHOLANTHRENE, Method: STANDARD PLATE active; positive | [2] active; positive | Test System: AMES SALMONELLA TYPHIMURIUM, Strain/Indicator: TA98(NR), Metabolic Activation: RAT, LIVER, S-9, 3-METHYLCHOLANTHRENE, Method: STANDARD PLATE active; positive | [3] active; positive | Test System: AMES SALMONELLA TYPHIMURIUM, Strain/Indicator: TA98, Metabolic Activation: RAT, LIVER, S-9, 3-METHYLCHOLANTHRENE, Method: STANDARD PLATE active; positive

CC(=O)Nc1ccc(Oc2ccc(N(OC(C)=O)C(C)=O)cc2)cc1
active: Test System: AMES SALMONELLA TYPHIMURIUM, Strain/Indicator: TA98(1,8-DNP6), Metabolic Activation: NONE, Method: PREINCUBATION active; positive | Test System: AMES SALMONELLA TYPHIMURIUM, Strain/Indicator: TA98(1,8-DNP6), Metabolic Activation: RAT, LIVER, S-9, AROCLOR 1254, Method: PREINCUBATION active; positive | Test System: AMES SALMONELLA TYPHIMURIUM, Strain/Indicator: TA98(NR), Metabolic Activation: NONE, Method: PREINCUBATION active; positive | Test System: AMES SALMONELLA TYPHIMURIUM, Strain/Indicator: TA98(NR), Metabolic Activation: RAT, LIVER, S-9, AROCLOR 1254, Method: PREINCUBATION active; positive | [7] active; positive | Test System: AMES SALMONELLA TYPHIMURIUM, Strain/Indicator: TA98, Metabolic Activation: RAT, LIVER, S-9, AROCLOR 1254, Method: PREINCUBATION active; positive | Test System: AMES SALMONELLA TYPHIMURIUM, Strain/Indicator: TA100(NR), Metabolic Activation: NONE, Method: PREINCUBATION active; positive | Test System: AMES SALMONELLA TYPHIMURIUM, Strain/Indicator: TA100(NR), Metabolic Activation: RAT, LIVER, S-9, AROCLOR 1254, Method: PREINCUBATION active; positive | [5] active; positive | Test System: AMES SALMONELLA TYPHIMURIUM, Strain/Indicator: TA100, Metabolic Activation: RAT, LIVER, S-9, AROCLOR 1254, Method: PREINCUBATION active; positive

Source: PubChem BioAssay AID1259407 (Chemical Carcinogenesis Research Information System (CCRIS), 2018)
